Experimental data reported in patent publication US6500816B1, “Remedies for photochemotherapy” (Nippon Kayaku Kabushiki Kaisha, priority 1998, dated 2002).

What was measured:
[1] = Maximum absorption wavelength of the compounds; assay type: physicochemical
From the text: Some representative examples of the compounds utilizable as the photochemotherapeutic agent according to the present invention are shown below.

[2] = background art statement; cited from earlier work

Maximum absorption wavelength (λmax) [1] [nm]	Molecule	maximum absorption wavelength [2] [nm]
1045	CC1CC(C=CC=C/C=C2\CC(C)Cc3c(-c4ccccc4)cc(-c4ccccc4)[o+]c32)=C2OC(c3ccccc3)=CC(c3ccccc3)=C2C1 (stereo not drawn) [Polymethine type 4]	
820	CCN(CC)c1ccc(C(=CC=CC(=C2C=CC(=[N+](CC)CC)C=C2)c2ccc(N(CC)CC)cc2)c2ccc(N(CC)CC)cc2)cc1 [Polymethine type 1]	
	dihematoporphyrin [Photofrin]	363
